From US20260108547A1, “LEVERAGING L-FUCOSE-MEDIATED SIGNALING TO INDUCE MONOCYTE-DERIVED DENDRITIC CELL POLARIZATION” (H. LEE MOFFITT CANCER CENTER AND RESEARCH INSTITUTE, INC., priority 2022, published 2026)

Legend:
SW1 tumors = assay: SW1 tumor growth in NSG (immunodeficient) mice; format: in vivo, mouse
Text: All animals were housed at the Vincent A. Stabile Research building animal facility at H. Lee Moffitt Cancer Center & Research Institute, which is fully accredited by the Association for Assessment and Accreditation of Laboratory Animal Care International (AAALAC, #434), and are managed in accordance with the Guide for the Care and Use of Laboratory Animals (“The Guide”), the Animal Welfare Regulations Title 9 Code of Federal Regulations Subchapter A, “Animal Welfare”, Parts 1-3 (AWR), the Public Health Service Policy on Humane Care and Use of Laboratory Animals (PHS Policy), and by the USF Institutional Animal Care and Use Committee's Principles and Procedures of Animal Care and Use (IACUC Principles). The experiments and protocols detailed in this study received institutional approval by the Moffitt IACUC (RIS00001625). Four-to-six-week-old female C3H/HeN and male C57BL6 mice were purchased from Charles Rivers Laboratories for the indicated experiments. Four-to-six-week-old male NSG mice from the Lau laboratory breeding colony were used for the indicated experiments. Power calculations were used to determine mouse cohort sizes to detect significant changes in tumor sizes. […] Mouse tumor volumes were measured using length, width and depth divided by 2. […]

[1] = system: human PBMC-derived CD4+T cells; assay: Phosphoproteomic and fucosylated proteomic analyses of CD3/CD28-activated CD4+T cells; format: cell-based; settings: 250 μM L-fucose
Procedure: CD4^+T cells cultured and treated as indicated in the main text were harvested and lysed in standard RIPA buffer+protease and phosphatase inhibitors. Protein concentration was estimated by BCA assay (Bio-Rad) and 1 mg lysates were subjected to trypsin digestion. Briefly, lysates were reduced with 4.5 mM dithiothreitol (DTT) for 30 min at 60° C., alkylated with 10 mM iodoacetamide (IAA) at room temperature in the dark for 20 minutes, and digested overnight at 37° C. with 1:20 enzyme-to-protein ratio of trypsin (Worthington). The resulting peptide solution was de-salted using reversed-phase Sep-Pak C18 cartridge (Waters) and lyophilized for 48 hours.
The lyophilized peptides were enriched for global phosphopeptides (pSTY) using IMAC Fe-NTA magnetic beads (Cell Signaling Technology, #20432). Enrichment were carried out on a KingFisher™ Flex Purification System (Thermo Fisher, #24074441). […]
On-bead digestion was performed with trypsin and tryptic peptides were then analyzed using a nanoflow ultra-high-performance liquid chromatograph (RSLC, Dionex, Sunnyvale, CA) coupled to an electrospray orbitrap mass spectrometer (Q-Exactive Plus, Thermo, San Jose, CA) for tandem mass spectrometry peptide sequencing. […] MaxQuant software (version 1.6.2.10) was used to identify and quantify the proteins for the DDA runs. […]

breast tumors = assay: Syngeneic breast tumor model, tumor growth and flow cytometry of immune cells; format: in vivo
Text: We observed that L-fucose reduces tumor growth in breast cancer and enriches for CD11c+ cells.

BMMC = assay: Flow cytometric DC polarization of BMMC; format: cell-based
Procedure: We next investigated the effect of L-fucose on dendritic cell differentiation. To test whether L-fucose affected immature or mature myeloid cells preferentially, BMMC were treated with L-fucose at various stages of development, pre=before maturation cocktail, concurrent=during maturation cocktail or post=after maturation cocktail (FIG. 23A). […] We next sought to determine if L-fucose equally affected subpopulations of DCs. By flow cytometric analysis we were able to determine that moDC are affected most by the modulation of fucosylation in immature myeloid cell populations.

Q: Which results are given for `C[C@H](O)[C@@H](O)[C@@H](O)[C@H](O)C=O` [L-fucose]?
A: SW1 tumor growth in immunodeficient mice (SW1 tumors): did not reduce; Protein Kinase A (PKA) and actin signaling in CD4+T cells [1]: significantly altering; CD11c+ cells in breast tumors (breast tumors; flow cytometry): enrichment of CD11c+ cells; breast tumor growth (breast tumors; syngeneic breast tumor model): dose-dependent tumor suppression; polarization of myeloid cells (DC subpopulations) (BMMC; flow cytometric analysis): polarizes myeloid cells towards a moDC phenotype; absolute DC numbers (BMMC; flow cytometric profiling of BMMCs): without affecting absolute DC numbers; DC polarization of BMMC (BMMC; treated pre, concurrent or post maturation cocktail): leads to DC polarization of BMMC at any stage of myeloid development
